Measured values reported in ChEMBL document CHEMBL1201862, “PubChem BioAssay data set” (2004).
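A five-concentration, 48-hour dose response in 96-well plates underlies each endpoint, interpolated linearly between surrounding concentrations. GI50 = concentration required for 50% inhibition of growth.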 The source made the active and inactive calls. Rule as the data show it: active = GI50 up to about 1.1 µM and inactive = higher.

Key:
Assay in all cases: DTP human tumour cell line panel, 48 h
NCI-H23 = system: NCI-H23
SNB-19 = system: SNB-19
KM-20L2 = system: KM-20L2
UO-31 = system: UO-31
UACC-62 = system: UACC-62
HCT-116 = system: HCT-116
RXF 393 = system: RXF 393
Malme-3M = system: Malme-3M
NCI-H522 = system: NCI-H522
LOX IMVI = system: LOX IMVI
NCI-H460 = system: NCI-H460
OVCAR-3 = system: OVCAR-3
KM12 = system: KM12
SF-268 = system: SF-268
UACC-257 = system: UACC-257
CCRF-CEM = system: CCRF-CEM
HOP-62 = system: HOP-62
SNB-75 = system: SNB-75
ACHN = system: ACHN
A549 = system: A549
SK-MEL-28 = system: SK-MEL-28
COLO 205 = system: COLO 205
OVCAR-8 = system: OVCAR-8
OVCAR-5 = system: OVCAR-5
SR = system: SR
TK-10 = system: TK-10
M19-MEL = system: M19-MEL
HL-60 = system: HL-60
CAKI-1 = system: CAKI-1
HCT-15 = system: HCT-15
SK-OV-3 = system: SK-OV-3
SK-MEL-5 = system: SK-MEL-5
M14 = system: M14
SN12C = system: SN12C
NCI-H226 = system: NCI-H226
SNB-78 = system: SNB-78
RPMI-8226 = system: RPMI-8226
K562 = system: K562
DMS-114 = system: DMS-114
SW-620 = system: SW-620
HOP-92 = system: HOP-92
SF-295 = system: SF-295
MOLT-4 = system: MOLT-4
SK-MEL-2 = system: SK-MEL-2
HT-29 = system: HT-29
U-251 = system: U-251
HOP-18 = system: HOP-18
SF-539 = system: SF-539
OVCAR-4 = system: OVCAR-4
IGROV-1 = system: IGROV-1
LXFL 529 = system: LXFL 529
786-0 = system: 786-0
DLD-1 = system: DLD-1
DMS-273 = system: DMS-273
EKVX = system: EKVX
HCC 2998 = system: HCC 2998
A498 = system: A498

Measured: GI50

O=C(c1ccco1)N(C(=S)N1CCN(c2ccccn2)CC1)C1CCCCC1
> 100 µM: HCT-15
inactive: NCI-H23 > 100 µM | SNB-19 > 100 µM | KM-20L2 > 100 µM | UO-31 83.4 µM | UACC-62 > 100 µM | HCT-116 > 100 µM | RXF 393 > 100 µM | Malme-3M > 100 µM | NCI-H522 > 100 µM | LOX IMVI > 100 µM | NCI-H460 > 100 µM | OVCAR-3 > 100 µM | KM12 > 100 µM | SF-268 > 100 µM | UACC-257 > 100 µM | CCRF-CEM > 100 µM | HOP-62 > 100 µM | SNB-75 > 100 µM | ACHN > 100 µM | A549 > 100 µM | SK-MEL-28 > 100 µM | COLO 205 > 100 µM | OVCAR-8 > 100 µM | OVCAR-5 > 100 µM | SR > 100 µM | TK-10 > 100 µM | M19-MEL > 100 µM | HL-60 > 100 µM | CAKI-1 > 100 µM | SK-OV-3 > 100 µM | SK-MEL-5 > 100 µM | M14 > 100 µM | SN12C > 100 µM | NCI-H226 > 100 µM | SNB-78 > 100 µM | RPMI-8226 > 100 µM | K562 > 100 µM | DMS-114 77.3 µM | SW-620 > 100 µM | HOP-92 > 100 µM | SF-295 > 100 µM | MOLT-4 83.4 µM | SK-MEL-2 > 100 µM | HT-29 > 100 µM | U-251 > 100 µM | HOP-18 > 100 µM | SF-539 > 100 µM | OVCAR-4 > 100 µM | IGROV-1 > 100 µM | LXFL 529 > 100 µM | 786-0 > 100 µM | DLD-1 > 100 µM | DMS-273 > 100 µM

O=C(CP(=O)(O)O)c1cccs1
inactive: NCI-H23 > 100 µM | SNB-19 > 100 µM | KM-20L2 > 100 µM | UO-31 > 100 µM | UACC-62 > 100 µM | HCT-116 > 100 µM | Malme-3M > 100 µM | NCI-H522 > 100 µM | LOX IMVI > 100 µM | NCI-H460 > 100 µM | OVCAR-3 > 100 µM | KM12 > 100 µM | SF-268 > 100 µM | UACC-257 > 100 µM | CCRF-CEM > 100 µM | HOP-62 > 100 µM | SNB-75 > 100 µM | ACHN > 100 µM | A549 > 100 µM | SK-MEL-28 > 100 µM | COLO 205 > 100 µM | OVCAR-8 > 100 µM | OVCAR-5 > 100 µM | TK-10 > 100 µM | M19-MEL > 100 µM | HL-60 > 100 µM | CAKI-1 > 100 µM | SK-OV-3 > 100 µM | SK-MEL-5 > 100 µM | M14 > 100 µM | SN12C > 100 µM | SNB-78 > 100 µM | RPMI-8226 > 100 µM | K562 > 100 µM | DMS-114 > 100 µM | SW-620 > 100 µM | HOP-92 > 100 µM | SF-295 > 100 µM | SK-MEL-2 > 100 µM | HT-29 > 100 µM | U-251 > 100 µM | EKVX > 100 µM | HOP-18 > 100 µM | SF-539 > 100 µM | IGROV-1 > 100 µM | LXFL 529 > 100 µM | 786-0 > 100 µM | DLD-1 > 100 µM | HCC 2998 > 100 µM | A498 > 100 µM | DMS-273 > 100 µM
> 100 µM: HCT-15
